Common to all, as to format: biochemical
Experiment [1] addresses PI3Kδ (Homo sapiens, UniProt O00329). Put plainly: PI3Kδ kinase assay (HTRF). Particulars: for IC50: symbols ++ / +, read-out: PI3Kδ Inhibition Activity (IC50 class); for inhibition at 1 µM: symbols ** / *, read-out: PI3Kδ Inhibition Activity (% Inhibition class). The procedure: (§1) The PIP3 product is detected by displacement of biotin-PIP3 from an energy transfer complex consisting of Europium labeled anti-GST monoclonal antibody, a GST-tagged pleckstrin homology (PH) domain, biotinylated PIP3 and Streptavidin-Allophycocyanin (APC). […] The PIP3 product formed by PI 3-Kinase(h) activity displaces biotin-PIP3 from the complex resulting in a loss of energy transfer, and thus, a decrease in signal.
(§2) First, the kinase reaction with PIP2 substrate is carried out in the presence of ATP, and the reaction is quenched with stop Solution, and then, finally detect by adding Detection Mixture followed by incubation.
(§3) HEPES 50 mM (pH7.0), NaN3 0.02%, BSA 0.01%, Orthovanadate 0.1 mM, 1% DMSO.
(§4) Detection buffer: HEPES 10 mM (pH7.0), BSA 0.02%, KF 0.16 M, EDTA 4 mM.
(§5) 10 μM PIP2 substrate (PI(4,5)P2)
(§6) 10 μM ATP under standard conditions
(§7) 1. Prepare substrate in freshly prepared Reaction Buffer.
(§8) 2. Deliver kinase into the substrate solution and gently mix.
(§9) 3. Deliver compounds in 100% DMSO into the kinase reaction mixture by Acoustic technology (Echo550; nanoliter range), incubate for 10 min at room temperature.
(§10) 4. Deliver ATP into the reaction mixture to initiate the reaction.
(§11) 5. Incubate for 30 min at 30° C.
(§12) 6. Quench the reaction with Stop Solution.
(§13) 7. Add Detection Mixture, and incubate for overnight.
(§14) The emission ratio is converted into μM PIP3 production based on PIP3 standard curves.
(§15) The nonlinear regression to obtain the standard curve and IC50 values are performed using Graphpad Prism software.
For orientation: In TR-FRET formats the signal depends on donor and acceptor labels being close together.

The target of experiment [2] is T1, HDAC6 (Homo sapiens, UniProt Q9UBN7).
T1 sequence (Q9UBN7 1-1215): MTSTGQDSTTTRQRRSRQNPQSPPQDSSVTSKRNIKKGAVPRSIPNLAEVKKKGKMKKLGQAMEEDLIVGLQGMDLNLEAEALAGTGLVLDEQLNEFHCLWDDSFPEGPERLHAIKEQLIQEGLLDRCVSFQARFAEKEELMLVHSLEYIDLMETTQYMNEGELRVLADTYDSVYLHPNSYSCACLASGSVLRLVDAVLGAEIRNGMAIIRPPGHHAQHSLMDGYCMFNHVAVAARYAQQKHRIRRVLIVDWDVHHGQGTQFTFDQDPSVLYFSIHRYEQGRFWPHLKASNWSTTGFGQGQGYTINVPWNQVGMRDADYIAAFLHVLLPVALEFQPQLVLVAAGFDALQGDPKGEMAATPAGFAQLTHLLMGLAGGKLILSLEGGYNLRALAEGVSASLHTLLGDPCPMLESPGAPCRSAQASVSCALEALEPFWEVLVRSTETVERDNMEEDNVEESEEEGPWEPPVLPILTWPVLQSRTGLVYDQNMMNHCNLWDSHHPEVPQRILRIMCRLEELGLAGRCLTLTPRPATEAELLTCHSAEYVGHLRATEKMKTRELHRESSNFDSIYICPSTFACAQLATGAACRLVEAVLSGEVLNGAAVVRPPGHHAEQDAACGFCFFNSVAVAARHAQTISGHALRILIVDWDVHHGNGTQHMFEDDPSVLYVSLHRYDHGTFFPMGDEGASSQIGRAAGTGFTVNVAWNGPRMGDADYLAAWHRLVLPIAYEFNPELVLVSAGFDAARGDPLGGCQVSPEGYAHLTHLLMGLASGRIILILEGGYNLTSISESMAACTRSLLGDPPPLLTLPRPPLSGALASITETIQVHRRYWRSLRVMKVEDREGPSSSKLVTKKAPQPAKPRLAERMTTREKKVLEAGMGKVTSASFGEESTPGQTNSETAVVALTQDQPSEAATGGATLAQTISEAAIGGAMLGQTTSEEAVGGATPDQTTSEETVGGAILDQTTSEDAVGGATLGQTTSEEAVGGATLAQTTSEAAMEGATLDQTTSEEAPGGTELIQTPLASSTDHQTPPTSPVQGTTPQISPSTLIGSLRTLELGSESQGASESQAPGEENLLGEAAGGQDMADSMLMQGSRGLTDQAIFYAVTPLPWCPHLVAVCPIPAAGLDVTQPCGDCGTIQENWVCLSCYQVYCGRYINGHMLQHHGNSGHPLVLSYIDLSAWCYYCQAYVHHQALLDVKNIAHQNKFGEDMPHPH
Kind of experiment: HDAC Fluorescent Activity Assay. Particulars: for IC50: symbols ++ / +, read-out: HDAC6 Inhibition Activity (IC50 class); for inhibition at 1 µM: symbols ** / *, read-out: HDAC6 Inhibition Activity (% Inhibition class). The procedure: This protocol is to determine the IC50s or percentage of inhibition values of the test compound against HDACs.
The HDAC Fluorescent Activity Assay is based on the unique Fluorogenic Substrate and Developer combination. […] First, the Fluorogenic Substrate, which comprises an acetylated lysine side chain, is incubated with a purified HDAC enzyme. Deacetylation of the substrate sensitizes the substrate so that, in the second step, treatment with the Developer produces a fluorophore.
Testing compounds were dissolved in 100% DMSO to specific concentration. […]
1. Deliver 2× enzyme in wells of reaction plate except No Enzyme control wells. Add buffer in No En wells.
2. Deliver compounds in 100% DMSO into the enzyme mixture by Acoustic technology (Echo550; nanoliter range). Spin down and pre-incubation.
3. Deliver 2× Substrate Mixture (Fluorogenic HDAC Substrate and co-factor if applicable) in all reaction wells to initiate the reaction. Spin and shake.
4. Incubate for 1-2 hr at 30° C. with seal.
5. Add Developer with Trichostatin A (or TMP269) to stop the reaction and to generate fluorescent color.
6. Fluorescence was read (excitatory, 360; emission, 460) using the EnVision Multilabel
7. Take endpoint reading for analysis after the development reaches plateau.
The percentages of enzyme activity (relative to DMSO controls) and IC50 values were calculated using the GraphPad Prism 4 program based on a sigmoidal dose-response equation.

In experiment [3] the target is PI3Kβ (Homo sapiens, UniProt P42338). Kind of experiment: PI3Kβ kinase assay (HTRF). The procedure: as §1, §2, §3, §4, §5, §6, §7, §8, §9, §10, §11, §12, §13, §14, §15
In experiment [4] the target is PI3Kα (Homo sapiens, UniProt P42336). Kind of experiment: PI3Kα kinase assay (HTRF). The protocol:
as §1, §2, §3, §4, §5, §6, §7, §8, §9, §10, §11, §12, §13, §14, §15

Experiment [5] addresses PI3Kγ (Homo sapiens, UniProt P48736). Put plainly: PI3Kγ kinase assay (HTRF). The procedure:
as §1, §2, §3, §4, §5, §6, §7, §8, §9, §10, §11, §12, §13, §14, §15

Sequence of PI3Kδ (O00329 whole entry): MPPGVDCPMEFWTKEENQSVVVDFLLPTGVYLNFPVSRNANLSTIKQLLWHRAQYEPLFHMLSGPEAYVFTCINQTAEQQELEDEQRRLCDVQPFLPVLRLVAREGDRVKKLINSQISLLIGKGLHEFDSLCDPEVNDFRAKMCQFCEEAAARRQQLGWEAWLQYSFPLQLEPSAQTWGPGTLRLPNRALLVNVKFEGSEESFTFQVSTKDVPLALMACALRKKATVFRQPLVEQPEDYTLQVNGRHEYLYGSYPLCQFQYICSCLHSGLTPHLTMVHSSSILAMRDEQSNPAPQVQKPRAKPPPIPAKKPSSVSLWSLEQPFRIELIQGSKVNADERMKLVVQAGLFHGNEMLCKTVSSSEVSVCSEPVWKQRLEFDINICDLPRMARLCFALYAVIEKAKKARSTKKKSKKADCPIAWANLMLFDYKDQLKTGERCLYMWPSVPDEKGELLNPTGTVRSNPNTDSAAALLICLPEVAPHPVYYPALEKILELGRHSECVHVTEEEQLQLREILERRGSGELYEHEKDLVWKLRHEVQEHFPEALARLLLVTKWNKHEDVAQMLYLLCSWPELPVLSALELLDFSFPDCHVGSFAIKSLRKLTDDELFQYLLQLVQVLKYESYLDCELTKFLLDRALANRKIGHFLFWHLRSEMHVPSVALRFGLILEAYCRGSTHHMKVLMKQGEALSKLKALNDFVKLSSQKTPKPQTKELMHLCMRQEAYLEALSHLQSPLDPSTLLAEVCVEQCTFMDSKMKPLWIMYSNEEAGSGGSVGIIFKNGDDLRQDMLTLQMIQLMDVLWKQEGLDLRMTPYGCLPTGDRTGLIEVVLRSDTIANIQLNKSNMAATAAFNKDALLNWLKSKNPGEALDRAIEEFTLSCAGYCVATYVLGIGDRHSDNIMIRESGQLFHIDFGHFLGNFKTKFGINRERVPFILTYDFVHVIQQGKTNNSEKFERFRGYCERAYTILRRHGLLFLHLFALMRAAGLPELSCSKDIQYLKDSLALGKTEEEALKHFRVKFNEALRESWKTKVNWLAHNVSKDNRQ
Sequence of PI3Kδ (P27986 whole entry partner): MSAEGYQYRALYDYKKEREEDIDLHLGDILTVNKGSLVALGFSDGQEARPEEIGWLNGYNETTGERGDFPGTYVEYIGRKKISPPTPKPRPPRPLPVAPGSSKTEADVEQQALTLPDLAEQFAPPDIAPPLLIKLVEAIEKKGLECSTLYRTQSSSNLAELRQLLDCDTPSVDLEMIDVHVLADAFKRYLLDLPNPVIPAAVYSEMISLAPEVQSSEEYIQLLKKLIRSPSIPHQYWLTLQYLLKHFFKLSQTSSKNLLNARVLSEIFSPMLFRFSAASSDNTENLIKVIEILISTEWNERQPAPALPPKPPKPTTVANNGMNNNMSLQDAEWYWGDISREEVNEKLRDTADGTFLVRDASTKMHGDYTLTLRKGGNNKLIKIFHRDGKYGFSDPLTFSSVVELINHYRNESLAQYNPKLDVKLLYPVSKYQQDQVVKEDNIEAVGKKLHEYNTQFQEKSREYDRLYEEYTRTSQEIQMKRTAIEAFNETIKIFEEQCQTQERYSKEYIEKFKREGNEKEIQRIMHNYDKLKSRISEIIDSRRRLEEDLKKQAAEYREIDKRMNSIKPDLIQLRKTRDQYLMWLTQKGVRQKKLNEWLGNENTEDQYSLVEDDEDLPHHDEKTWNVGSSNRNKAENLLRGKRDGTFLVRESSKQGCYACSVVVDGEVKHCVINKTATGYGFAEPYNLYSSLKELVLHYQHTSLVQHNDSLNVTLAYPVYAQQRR
Sequence of PI3Kγ (P48736 whole entry): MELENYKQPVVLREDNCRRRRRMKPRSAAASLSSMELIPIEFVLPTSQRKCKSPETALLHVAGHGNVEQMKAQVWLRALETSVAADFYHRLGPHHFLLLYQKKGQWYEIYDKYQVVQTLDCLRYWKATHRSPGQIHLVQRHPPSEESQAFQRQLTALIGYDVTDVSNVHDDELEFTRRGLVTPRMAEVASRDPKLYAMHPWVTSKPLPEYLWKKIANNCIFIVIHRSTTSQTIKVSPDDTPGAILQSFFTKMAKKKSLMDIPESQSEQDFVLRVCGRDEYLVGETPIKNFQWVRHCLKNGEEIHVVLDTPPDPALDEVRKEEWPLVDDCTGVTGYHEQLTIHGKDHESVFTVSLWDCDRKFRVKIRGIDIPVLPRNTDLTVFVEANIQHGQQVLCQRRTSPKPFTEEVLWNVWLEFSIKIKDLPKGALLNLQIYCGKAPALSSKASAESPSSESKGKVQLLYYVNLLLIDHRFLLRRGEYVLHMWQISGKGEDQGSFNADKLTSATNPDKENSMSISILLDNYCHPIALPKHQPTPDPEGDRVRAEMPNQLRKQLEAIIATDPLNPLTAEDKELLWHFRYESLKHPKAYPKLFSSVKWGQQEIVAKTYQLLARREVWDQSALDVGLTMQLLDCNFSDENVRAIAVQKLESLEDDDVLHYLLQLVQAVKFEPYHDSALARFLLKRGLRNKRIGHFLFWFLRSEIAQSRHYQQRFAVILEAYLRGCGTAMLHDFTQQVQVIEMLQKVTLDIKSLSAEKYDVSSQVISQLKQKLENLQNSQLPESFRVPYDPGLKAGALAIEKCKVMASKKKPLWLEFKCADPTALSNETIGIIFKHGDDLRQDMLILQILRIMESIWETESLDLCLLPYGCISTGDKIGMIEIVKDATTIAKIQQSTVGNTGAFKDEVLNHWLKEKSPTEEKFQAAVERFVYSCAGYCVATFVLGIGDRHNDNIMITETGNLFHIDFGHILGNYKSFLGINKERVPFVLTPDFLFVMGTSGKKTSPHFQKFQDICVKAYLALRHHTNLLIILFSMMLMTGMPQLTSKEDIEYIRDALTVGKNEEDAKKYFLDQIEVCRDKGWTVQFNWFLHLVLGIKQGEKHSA
Sequence of PI3Kα (P42336 whole entry): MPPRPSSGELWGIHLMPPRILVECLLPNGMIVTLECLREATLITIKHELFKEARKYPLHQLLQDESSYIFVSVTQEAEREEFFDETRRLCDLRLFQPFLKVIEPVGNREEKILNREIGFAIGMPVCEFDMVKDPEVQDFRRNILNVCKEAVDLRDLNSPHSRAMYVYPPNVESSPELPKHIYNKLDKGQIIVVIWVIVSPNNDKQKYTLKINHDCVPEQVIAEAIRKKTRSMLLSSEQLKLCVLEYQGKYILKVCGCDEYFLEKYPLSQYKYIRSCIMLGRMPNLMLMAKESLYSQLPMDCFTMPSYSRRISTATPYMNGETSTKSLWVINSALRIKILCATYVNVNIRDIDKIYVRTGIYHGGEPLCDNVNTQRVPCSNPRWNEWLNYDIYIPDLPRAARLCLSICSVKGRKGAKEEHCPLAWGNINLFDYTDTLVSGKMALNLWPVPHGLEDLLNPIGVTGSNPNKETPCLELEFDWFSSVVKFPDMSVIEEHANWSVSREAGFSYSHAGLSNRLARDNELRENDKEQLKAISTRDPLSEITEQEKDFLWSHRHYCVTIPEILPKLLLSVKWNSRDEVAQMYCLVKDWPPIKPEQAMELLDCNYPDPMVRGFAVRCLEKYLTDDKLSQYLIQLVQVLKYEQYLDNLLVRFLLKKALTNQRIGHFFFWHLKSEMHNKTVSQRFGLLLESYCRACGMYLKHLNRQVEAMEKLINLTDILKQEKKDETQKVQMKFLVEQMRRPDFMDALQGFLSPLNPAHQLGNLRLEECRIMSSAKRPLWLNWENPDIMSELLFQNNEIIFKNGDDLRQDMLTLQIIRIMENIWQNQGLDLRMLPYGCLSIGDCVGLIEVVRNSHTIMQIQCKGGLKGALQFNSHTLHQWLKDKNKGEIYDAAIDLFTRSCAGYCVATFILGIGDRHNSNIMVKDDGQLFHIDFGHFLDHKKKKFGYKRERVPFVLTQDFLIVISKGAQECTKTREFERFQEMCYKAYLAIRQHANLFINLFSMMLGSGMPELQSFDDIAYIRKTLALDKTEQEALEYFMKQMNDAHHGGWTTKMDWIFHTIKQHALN
Sequence of PI3Kα (P27986 whole entry partner): as the sequence (P27986 whole entry partner) above
Sequence of PI3Kβ (P42338 whole entry): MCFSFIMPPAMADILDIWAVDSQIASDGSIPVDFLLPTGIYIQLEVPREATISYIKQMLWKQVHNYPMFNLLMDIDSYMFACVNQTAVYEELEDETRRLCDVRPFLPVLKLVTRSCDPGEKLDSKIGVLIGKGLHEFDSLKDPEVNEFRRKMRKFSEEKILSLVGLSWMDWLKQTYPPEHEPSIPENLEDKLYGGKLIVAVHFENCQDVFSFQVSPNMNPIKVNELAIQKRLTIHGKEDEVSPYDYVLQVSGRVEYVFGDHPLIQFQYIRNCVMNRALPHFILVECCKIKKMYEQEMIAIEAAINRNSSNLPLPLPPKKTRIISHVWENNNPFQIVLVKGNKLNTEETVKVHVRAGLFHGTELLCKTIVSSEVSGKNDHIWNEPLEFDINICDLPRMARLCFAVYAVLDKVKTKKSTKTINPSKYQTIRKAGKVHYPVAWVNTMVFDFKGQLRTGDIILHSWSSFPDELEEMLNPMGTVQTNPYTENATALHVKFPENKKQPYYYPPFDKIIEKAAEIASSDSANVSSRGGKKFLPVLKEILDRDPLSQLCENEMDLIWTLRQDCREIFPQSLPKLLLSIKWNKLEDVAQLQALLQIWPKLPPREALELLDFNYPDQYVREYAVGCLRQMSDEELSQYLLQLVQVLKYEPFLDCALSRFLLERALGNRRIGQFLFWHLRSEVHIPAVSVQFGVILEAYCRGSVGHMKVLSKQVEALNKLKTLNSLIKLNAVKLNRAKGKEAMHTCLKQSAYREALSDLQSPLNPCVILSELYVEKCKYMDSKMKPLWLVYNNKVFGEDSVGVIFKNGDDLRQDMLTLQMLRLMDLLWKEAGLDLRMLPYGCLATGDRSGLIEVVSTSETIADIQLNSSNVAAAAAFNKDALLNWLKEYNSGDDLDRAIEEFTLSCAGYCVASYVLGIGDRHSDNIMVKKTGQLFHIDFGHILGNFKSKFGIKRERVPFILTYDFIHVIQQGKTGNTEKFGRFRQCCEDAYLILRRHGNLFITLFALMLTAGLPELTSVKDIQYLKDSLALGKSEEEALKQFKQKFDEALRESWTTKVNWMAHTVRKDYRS
Sequence of PI3Kβ (P27986 whole entry partner): as the sequence (P27986 whole entry partner) above

One may read the IC50 as the concentration that inhibits the measured activity by half. Regarding `CC[C@H](Nc1nc(N)nc(C)c1C#N)c1nc2cccc(N3CCC(CCC(=O)NO)CC3)c2c(=O)n1-c1ccccc1` [Compound L, (S)-3-(1-(2-(1-((2-amino-5-cyano-6-methylpyrimidin-4-yl)amino)propyl)-4-oxo-3-phenyl-3,4-dihydroquinazolin-5-yl)piperidin-4-yl)-N-hydroxypropanamide], the concentration for half-maximal inhibition (IC50) in experiment [1] and in experiment [2] was less than 100 nM throughout.
For `CC[C@H](Nc1nc(N)nc(C)c1C#N)c1nc2cccc(N(C)Cc3ccc(C(=O)NO)cc3)c2c(=O)n1-c1ccccc1` [LI, (S)-4-(((2-(1-((2-amino-5-cyano-6-methylpyrimidin-4-yl)amino)propyl)-4-oxo-3-phenyl-3,4-dihydroquinazolin-5-yl)(methyl)amino)methyl)-N-hydroxybenzamide], the IC50 in experiment [1] and in experiment [2] was less than 100 nM each time.
Usually inhibition stands for the drop in the measured response relative to a control, in per cent. For `CC[C@H](Nc1nc(N)nc(C)c1C#N)c1nc2cccc(C#CCCCC(=O)NO)c2c(=O)n1-c1ccccc1` [LVI, (S)-6-(2-(1-((2-amino-5-cyano-6-methylpyrimidin-4-yl)amino)propyl)-4-oxo-3-phenyl-3,4-dihydroquinazolin-5-yl)-N-hydroxyhex-5-ynamide], in experiment [1], the IC50 was less than 100 nM. In experiment [2], the inhibition at 1 µM is greater than 90%.
As for `CC[C@H](Nc1ncnc(N)c1C(N)=O)c1nc2cccc(NCc3ccc(C(=O)NO)cn3)c2c(=O)n1-c1ccccc1` [LVII, (S)-4-amino-6-((1-(5-(((5-(hydroxycarbamoyl)pyridin-2-yl)methyl)amino)-4-oxo-3-phenyl-3,4-dihydroquinazolin-2-yl)propyl)amino)pyrimidine-5-carboxamide], the half-inhibitory concentration (IC50) in experiment [1] is greater than 100 nM; in experiment [2], less than 100 nM.
As for `O=C(NO)c1ccc(CNc2cccc3nc(C4CC4)n(-c4ccccc4)c(=O)c23)cc1` [LXI, 4-(((2-cyclopropyl-4-oxo-3-phenyl-3,4-dihydroquinazolin-5-yl)amino)methyl)-N-hydroxybenzamide], in experiment [2], the IC50 is less than 100 nM.
Turning to `Cc1nc2cccc(NCCCCC(=O)NO)c2c(=O)n1-c1ccccc1` [LXII, N-hydroxy-5-((2-methyl-4-oxo-3-phenyl-3,4-dihydroquinazolin-5-yl)amino)pentanamide], in experiment [2], the concentration for half-maximal inhibition (IC50) was greater than 100 nM.
On to `O=C(CCCCNc1cccc2nc(C3CC3)n(-c3ccccc3)c(=O)c12)NO` [LXIII, 5-((2-cyclopropyl-4-oxo-3-phenyl-3,4-dihydroquinazolin-5-yl)amino)-N-hydroxypentanamide], for which, in experiment [2], the IC50 is greater than 100 nM.
On to `CC[C@H](Nc1ncnc2[nH]cnc12)c1nc2cccc(-c3cnc(C(=O)NO)nc3)c2c(=O)n1-c1ccccc1` [XXII, (S)-5-(2-(1-((9H-purin-6-yl)amino)propyl)-4-oxo-3-phenyl-3,4-dihydroquinazolin-5-yl)-N-hydroxypyrimidine-2-carboxamide], for which the inhibition at 1 µM in experiment [3] is less than 85%; in experiment [4], less than 85%; in experiment [5], less than 85%; in experiment [1], greater than 90%; in experiment [2], less than 90%.
As to `CC[C@H](Nc1ncnc2[nH]cnc12)c1nc2cccc(CC(=O)c3ccc(C(=O)Nc4ccccc4N)cc3)c2c(=O)n1-c1ccccc1` [XXIII, (S)-4-(2-(2-(1-((9H-purin-6-yl)amino)propyl)-4-oxo-3-phenyl-3,4-dihydroquinazolin-5-yl)acetyl)-N-(2-aminophenyl)benzamide], the inhibition at 1 µM in experiment [3] was less than 85%; in experiment [4] it was less than 85%; in experiment [5] it was less than 85%; in experiment [1] it was greater than 90%; in experiment [2], less than 90%.
For `CC[C@H](Nc1ncnc2[nH]cnc12)c1nc2cccc(CNC(=O)c3cccc(B(O)O)c3)c2c(=O)n1-c1ccccc1` [XXV, (S)-(3-(((2-(1-((9H-purin-6-yl)amino)propyl)-4-oxo-3-phenyl-3,4-dihydroquinazolin-5-yl)methyl)carbamoyl)phenyl)boronic acid], the inhibition at 1 µM in experiment [3] is less than 85%; in experiment [4] it was less than 85%; in experiment [5], less than 85%; in experiment [1], greater than 90%; in experiment [2], less than 90%.
Regarding `CC[C@H](Nc1ncnc2[nH]cnc12)c1nc2cccc(NCc3ccc(C(=O)N(C)O)cc3)c2c(=O)n1-c1ccccc1` [XXVII, (S)-4-(((2-(1-((9H-purin-6-yl)amino)propyl)-4-oxo-3-phenyl-3,4-dihydroquinazolin-5-yl)amino)methyl)-N-hydroxy-N-methylbenzamide], the 50% inhibitory concentration (IC50) in experiment [2] was greater than 100 nM.
As to `CC[C@H](Nc1ncnc2[nH]cnc12)c1nc(NCCCCCC(=O)NO)c2ccccc2n1` [XXXI, (S)-6-((2-(1-((9H-purin-6-yl)amino)propyl)quinazolin-4-yl)amino)-N-hydroxyhexanamide], the 50% inhibitory concentration (IC50) is greater than 100 nM in experiment [1] and less than 100 nM in experiment [2].
Turning to `CC[C@H](Nc1ncnc2[nH]cnc12)c1nc(N2CCN(c3nc(C(=O)NO)cs3)CC2)c2ccccc2n1` [XXXII, (S)-2-(4-(2-(1-((9H-purin-6-yl)amino)propyl)quinazolin-4-yl)piperazin-1-yl)-N-hydroxythiazole-4-carboxamide], the inhibition at 1 µM in experiment [3] was less than 85%; in experiment [4], less than 85%; in experiment [5], less than 85%; in experiment [1], less than 90%; in experiment [2], less than 90%.
As for `CC[C@H](Nc1ncnc2[nH]cnc12)c1nc(N2CCN(c3nc(C(=O)NO)co3)CC2)c2ccccc2n1` [XXXIII, (S)-2-(4-(2-(1-((9H-purin-6-yl)amino)propyl)quinazolin-4-yl)piperazin-1-yl)-N-hydroxyoxazole-4-carboxamide], the inhibition at 1 µM in experiment [3] was less than 85%; in experiment [4], less than 85%; in experiment [5], less than 85%; in experiment [1] it was less than 90%; in experiment [2], greater than 90%.
